Assay results reported in article PMC5007854, “β-Nitrostyrenes as Potential Anti-leishmanial Agents” (Frontiers in Microbiology, 2016).
In brackets after ≈: the same amount, converted by molar mass. Where two headings read alike, the source gives them in different places.

Key:
[1] = tested on: Escherichia coli ATCC 25922; assay: Broth microdilution antibacterial susceptibility (MIC/MBC); format: cell-based; conditions: for MIC / MBC: Escherichia coli; for MIC: ATCC25922, 24 h
Text: (§1) One reference each of the following species was used for their in vitro susceptibility to β-nitrostyrene in this study: Staphylococcus aureus ATCC 29213, Staphylococcus epidermidis ATCC 14990, Escherichia coli ATCC 25922, Pseudomonas aeruginosa ATCC 27853, Candida albicans ATCC 90028, Candida glabrata ATCC 90030, Aspergillus fumigatus ATCC 16424 and Aspergillus niger ATCC 16404. These strains were procured from the American Type Culture Collection (ATCC, Manassas, VA, USA).
(§2) The antibacterial and antifungal activities of the β-nitrostyrenes were performed by broth microdilution methods as per the guidelines of Clinical and Laboratory Standard Institute (Wayne, [1998], [2008a],[b],[c]) by using Mueller-Hinton broth (MHB; Becton-Dickinson, Cockeysville, MD, USA) supplemented with calcium (25 mg/L) and magnesium (12.5 mg/L) for bacterial strains while as RPMI 1640 medium with L-glutamine and without sodium bicarbonate, buffered to pH 7.0 with 0.165 M 3-(N-morpholino) propanesulfonic acid (MOPS; both from Sigma) was used for fungal strains. Stock solutions were prepared in 100% dimethyl sulfoxide (DMSO; Sigma; distilled water was used for ciprofloxacin), with a final DMSO concentration of 1% (vol. per vol.) and two-fold serial dilutions were prepared in media in amounts of 100 μL per well in 96-well U-bottom microtiter plates (Tarsons, Kolkata, India) to yield twice the final concentration required for testing, which ranged from 64 to 0.12 μg/mL for β-nitrostyrenes and 16 to 0.03 μg/mL for ciprofloxacin as well as amphotericin B. Stock inoculum suspensions of the bacteria, Candida species and Aspergillus species were prepared in sterile normal saline (0.85%) containing 0.05% polysorbate 20 (NST) from overnight (3 to 5-day old for Aspergillus species) strains grown on Trypticase soy agar (TSA; Becton-Dickinson) and potato dextrose agar (Difco Laboratories, Detroit, MI, USA) respectively at 35°C. Inocula were verified for each assay by plating onto agar plates for colony enumeration. These suspensions were further diluted in the respective test medium and a 100 μl volume of this diluted inoculum was added to each well of the plate, resulting in a final inoculum concentration of approximately 5 × 10^5 CFU/mL for bacter1ia, (Wayne, [2008a]) approximately 2.5 × 10^4 CFU/ml for Candida species (Pfaller et al., [2004]) while as 0.4 × 10^4 to 5 × 10^4 CFU/mL for Aspergillus species (Wayne, [2008c]). Untreated growth control, vehicle control (DMSO) and sterility control wells were included for each isolate tested. Ciprofloxacin and amphotericin B served as the standard drug controls for bacterial and fungal strains, respectively. The microtiter plates were incubated at 35°C for 24 h for bacterial strains and 48 h for fungal strains. The plates were read visually and the minimum inhibitory concentration (MIC) was defined as the lowest concentration of test sample that prevented visible growth with respect to the growth control.
(§3) The minimum bactericidal concentration (MBC) and minimum fungicidal concentration (MFC) were determined by plating 100 μl volumes on agar plates from the wells showing no visible growth (clear MIC well). The plates were incubated as described above in MIC measurements. […] All experiments were conducted twice in duplicates on separate occasions with freshly prepared inoculums and stock solutions.

[2] = tested on: Pseudomonas aeruginosa ATCC 27853; assay: as above; format: cell-based; conditions: for MIC / MBC: Pseudomonas aeruginosa; for MIC: ATCC27853, 24 h
Text: as §1, §2, §3

[3] = tested on: Staphylococcus aureus ATCC 29213; assay: as above; format: cell-based; conditions: Staphylococcus aureus; for MIC: ATCC29213, 24 h, broth microdilution, 35°C, 24 h, read-out: MIC, Sa ATCC 29213
Text: as §1, §2, §3

[4] = tested on: Staphylococcus epidermidis ATCC 14990; assay: as above; format: cell-based; conditions: for MIC / MBC: Staphylococcus epidermidis; for MIC: ATCC14990, 24 h
Text: as §1, §2, §3

[5] = tested on: Aspergillus fumigatus ATCC 16424; assay: Broth microdilution antifungal susceptibility (MIC/MFC); format: cell-based; conditions: for MIC / MFC: Aspergillus fumigatus; for MIC: ATCC16424, 48 h
Text: as §1, §2, §3

[6] = tested on: Aspergillus niger ATCC 16404; assay: as above; format: cell-based; conditions: for MIC / MFC: Aspergillus niger; for MIC: ATCC16404, 48 h
Text: as §1, §2, §3

[7] = tested on: Candida albicans ATCC 90028; assay: as above; format: cell-based; conditions: for MIC / MFC: Candida albicans; for MIC: ATCC90028, 48 h
Text: as §1, §2, §3

[8] = tested on: Candida glabrata ATCC 90030; assay: as above; format: cell-based; conditions: Nakaseomyces glabratus; for MIC: ATCC90030, 48 h, broth microdilution, 35°C, 48 h, read-out: MIC, Cg ATCC 90030
Text: as §1, §2, §3

[9] = tested on: L. donovani promastigotes; assay: Anti-leishmanial screening at 100 μM, parasite viability by microscopy; format: cell-based, Leishmania donovani; conditions: for Anti-leishmanial activity, in words (SAR discussion): L. donovani promastigotes
Description: L. donovani parasites (MHOM/IN/83/AG83) were maintained in vivo in BALB/c mice. Promastigotes were routinely cultured at 22°C in medium M199 supplemented with 10% heat inactivated fetal bovine serum (FBS, HiMedia Laboratories, Mumbai, India), penicillin 100 (IU/ml), streptomycin (100 μg/ml). Log phase promastigotes were sub-cultured every 72–96 h, the inoculum being 2 × 10^6 cells/ml (Afrin et al., [2002]).
Nitrostyrine series were screened for their antileishmanial activity against L. donovani promastigotes in vitro. Promastigotes of L. donovani (2 × 10^6 cells/mL) in M199 medium were incubated at 22°C for 72 h with each compound at a concentration of 100 μM. Amphotericin B (AmB) served as reference drug, 0.2% DMSO was used as solvent control. Parasites with media alone were taken as control. Parasite viability was determined microscopically after 72 h (Islamuddin et al., [2014b]).

[10] = broth microdilution, 35°C, 24 h
[11] = broth microdilution, 35°C, 48 h
[12] = broth microdilution, 35°C, 24 h, read-out: MIC, Ec ATCC 25922
[13] = ATCC25922, ≥99.9% reduction of original inoculum, read-out: MBC, Ec ATCC 25922
[14] = broth microdilution, 35°C, 24 h, read-out: MIC, Pa ATCC 27853
[15] = ATCC27853, ≥99.9% reduction of original inoculum, read-out: MBC, Pa ATCC 27853
[16] = ATCC29213, ≥99.9% reduction of original inoculum, read-out: MBC, Sa ATCC 29213
[17] = broth microdilution, 35°C, 24 h, read-out: MIC, Se ATCC 14990
[18] = ATCC14990, ≥99.9% reduction of original inoculum, read-out: MBC, Se ATCC 14990
[19] = broth microdilution, 35°C, 48 h, read-out: MIC, Af ATCC 16424
[20] = ATCC16424, ≥99.9% reduction of original inoculum, read-out: MFC, Af ATCC 16424
[21] = broth microdilution, 35°C, 48 h, read-out: MIC, An ATCC 16404
[22] = ATCC16404, ≥99.9% reduction of original inoculum, read-out: MFC, An ATCC 16404
[23] = broth microdilution, 35°C, 48 h, read-out: MIC, Ca ATCC 90028
[24] = ATCC90028, ≥99.9% reduction of original inoculum, read-out: MFC, Ca ATCC 90028
[25] = ATCC90030, ≥99.9% reduction of original inoculum, read-out: MFC, Cg ATCC 90030

Q: `O=[N+]([O-])/C=C/c1ccc([N+](=O)[O-])cc1` [Compound 7, 1-nitro-4-((E)-2-nitrovinyl) benzene] was tested. Which MIC ([1]; read-out: MIC, Ec ATCC 25922, broth microdilution, 35°C, 24 h) did it give?
A: 16 to 32 µg/mL (≈ 82.4 to 165 µM)

Q: What about the MBC ([1]; ATCC25922, read-out: MBC, Ec ATCC 25922) of the same molecule?
A: 32 µg/mL (≈ 165 µM)

Q: And the “MIC, Ec ATCC 25922” value [1, 10]?
A: 16 µg/mL (≈ 82.4 µM)

Q: And the MIC ([2]; read-out: MIC, Pa ATCC 27853, broth microdilution, 35°C, 24 h)?
A: 16 to 32 µg/mL (≈ 82.4 to 165 µM)

Q: And the MBC ([2]; ATCC27853, read-out: MBC, Pa ATCC 27853)?
A: 32 µg/mL (≈ 165 µM)

Q: And the “MIC, Pa ATCC 27853” value [2, 10]?
A: 16 µg/mL (≈ 82.4 µM)

Q: And the MBC ([3]; ATCC29213, read-out: MBC, Sa ATCC 29213)?
A: 8 µg/mL (≈ 41.2 µM)

Q: And the MIC ([4]; read-out: MIC, Se ATCC 14990, broth microdilution, 35°C, 24 h)?
A: 2 to 16 µg/mL (≈ 10.3 to 82.4 µM)

Q: And the MBC ([4]; ATCC14990, read-out: MBC, Se ATCC 14990)?
A: 4 µg/mL (≈ 20.6 µM)

Q: And the “MIC, Se ATCC 14990” value [4, 10]?
A: 4 µg/mL (≈ 20.6 µM)

Q: And the MIC ([5]; read-out: MIC, Af ATCC 16424, broth microdilution, 35°C, 48 h)?
A: 4 to 8 µg/mL (≈ 20.6 to 41.2 µM)

Q: And the MFC ([5]; ATCC16424, read-out: MFC, Af ATCC 16424)?
A: 4 µg/mL (≈ 20.6 µM)

Q: What about the “MIC, Af ATCC 16424” value [5, 11] of the same molecule?
A: 4 µg/mL (≈ 20.6 µM)

Q: And the MIC ([6]; read-out: MIC, An ATCC 16404, broth microdilution, 35°C, 48 h)?
A: 2 to 4 µg/mL (≈ 10.3 to 20.6 µM)

Q: And the MFC ([6]; ATCC16404, read-out: MFC, An ATCC 16404)?
A: 2 µg/mL (≈ 10.3 µM)

Q: And the “MIC, An ATCC 16404” value [6, 11]?
A: 2 µg/mL (≈ 10.3 µM)

Q: What about the MIC ([7]; read-out: MIC, Ca ATCC 90028, broth microdilution, 35°C, 48 h) of the same molecule?
A: 4 to 32 µg/mL (≈ 20.6 to 165 µM)

Q: What about the MFC ([7]; ATCC90028, read-out: MFC, Ca ATCC 90028) of the same molecule?
A: 4 µg/mL (≈ 20.6 µM)

Q: And the “MIC, Ca ATCC 90028” value [7, 11]?
A: 4 µg/mL (≈ 20.6 µM)

Q: What about the MFC ([8]; ATCC90030, read-out: MFC, Cg ATCC 90030) of the same molecule?
A: 4 µg/mL (≈ 20.6 µM)

Q: What about the “Parasite viability after treatment” value ([9]; 100 μM, 72 h, phase contrast microscope) of the same molecule?
A: All the parasites were found to be dead

Q: How did the MIC [1, 12] turn out when `CC/C(=C\c1ccc(OC)cc1)[N+](=O)[O-]` [Compound 15, 1-methoxy-4-((E)-2-nitrobut-1-enyl) benzene] was run?
A: > 64 µg/mL

Q: What about the MBC [1, 13] of the same molecule?
A: > 64 µg/mL

Q: What about the MIC [2, 14] of the same molecule?
A: > 64 µg/mL

Q: What about the MBC [2, 15] of the same molecule?
A: > 64 µg/mL

Q: What about the MIC [3] of the same molecule?
A: 16 µg/mL (≈ 77.2 µM)

Q: And the MBC [3, 16]?
A: 32 µg/mL (≈ 154 µM)

Q: What about the MIC [4, 17] of the same molecule?
A: 16 µg/mL (≈ 77.2 µM)

Q: What about the MBC [4, 18] of the same molecule?
A: 16 µg/mL (≈ 77.2 µM)

Q: And the MIC [5, 19]?
A: 8 µg/mL (≈ 38.6 µM)

Q: What about the MFC [5, 20] of the same molecule?
A: 16 µg/mL (≈ 77.2 µM)

Q: What about the MIC [6, 21] of the same molecule?
A: 8 µg/mL (≈ 38.6 µM)

Q: What about the MFC [6, 22] of the same molecule?
A: 8 µg/mL (≈ 38.6 µM)

Q: What about the MIC [7, 23] of the same molecule?
A: 32 µg/mL (≈ 154 µM)

Q: And the MFC [7, 24]?
A: 32 µg/mL (≈ 154 µM)

Q: What about the MIC [8] of the same molecule?
A: 16 µg/mL (≈ 77.2 µM)

Q: What about the MFC [8, 25] of the same molecule?
A: 16 µg/mL (≈ 77.2 µM)

Q: What about the “Anti-leishmanial activity, in words (SAR discussion)” value [9] of the same molecule?
A: reduced the activity

Q: With `COc1ccc(/C=C/[N+](=O)[O-])cc1OC` [Compound 22, 1,2-dimethoxy-4-((E)-2-nitrovinyl) benzene] as the molecule, how does the MIC [1, 12] read?
A: > 64 µg/mL

Q: And the MBC [1, 13]?
A: > 64 µg/mL

Q: What about the MIC [2, 14] of the same molecule?
A: > 64 µg/mL

Q: And the MBC [2, 15]?
A: > 64 µg/mL

Q: What about the MIC [3] of the same molecule?
A: > 64 µg/mL

Q: And the MBC [3, 16]?
A: > 64 µg/mL

Q: And the MIC [4, 17]?
A: 64 µg/mL (≈ 306 µM)

Q: What about the MBC [4, 18] of the same molecule?
A: 64 µg/mL (≈ 306 µM)

Q: And the MIC [5, 19]?
A: 32 µg/mL (≈ 153 µM)

Q: And the MFC [5, 20]?
A: 64 µg/mL (≈ 306 µM)

Q: And the MIC [6, 21]?
A: 32 µg/mL (≈ 153 µM)

Q: What about the MFC [6, 22] of the same molecule?
A: 32 µg/mL (≈ 153 µM)

Q: What about the MIC [7, 23] of the same molecule?
A: 64 µg/mL (≈ 306 µM)

Q: What about the MFC [7, 24] of the same molecule?
A: 64 µg/mL (≈ 306 µM)

Q: What about the MIC [8] of the same molecule?
A: 16 µg/mL (≈ 76.5 µM)

Q: And the MFC [8, 25]?
A: 16 µg/mL (≈ 76.5 µM)

Q: And the “Anti-leishmanial activity, in words (SAR discussion)” value [9]?
A: inactive
